From patent US20220211868A1, “NANOPARTICLES COMPRISING NON-CLASSICAL MHC AND USES THEREOF” (UTI Limited Partnership, priority 2019, published 2022)
“Also recorded” adds a separate entry of the source.

Experiments:
[1] = tested on: NOD.c3c4.scid mice; assay: Transfer of disease protection by liver iNKT cells to NOD.c3c4.scid mice reconstituted with diseased splenocytes; assay type: in vivo, mouse; details: vs liver iNKT cells from control NOD.c3c4 donors; FIG. 10
Excerpt: (§1) Next the mechanisms of disease suppression were investigated.

[2] = tested on: CD11b+ APCs from liver-draining LNs and liver Kupffer cells; assay: Suppression of antigen presentation by APCs by liver iNKT cells from treated mice; assay type: cell-based, mouse; details: APCs from untreated mice, FIG. 9
Excerpt: as §1

[3] = tested on: B-cells; assay: Breg cell formation from transferred Il10-eGFP B cells in treated NOD.c3c4 mice; assay type: in vivo, mouse; details: within 7 days of transfer; B-cells pulsed with αGalCer or not
Excerpt: This was done by transferring αGalCer-pulsed or non-pulsed B cells carrying an eGFP transgene in the Il10 locus into αGalCer/CD1d-NP-treated or untreated NOD.c3c4 mice, and enumerated the frequency of transferred CD5+ and CD1d^high B-cells that acquired eGFP expression within 7 days. […] Thus, αGalCer/CD1d-NP treatment triggers iNKTR1 cell formation which then drive Breg cell formation by recognizing endogenous B-cell antigenic ligand(s) in a CD1d-restricted manner.

[4] = tested on: liver iNKT cells, Kupffer cells and B-lymphocytes; assay: Spinning-disk confocal intravital microscopy of liver in Cxcr6GFP/+ Ifng-Delta-ARE+/- (NOD×B6) F1 mice; assay type: in vivo, mouse
Excerpt: To get further insights into downstream cellular targets, spinning-disk confocal intravital microscopy was used to track αGalCer/CD1d-NP-induced iNKT cells, Kuppfer cells, and B-lymphocytes in the livers of treated and untreated Ifng-Delta-ARE^+/− (NOD×B6) F1 mice, which also develop spontaneous PBC-like disease. To track iNKT cells in vivo, Cxcr6^GFP/+ mice were used, in which 60-80% of liver eGFP+ cells are iNKT cells, the remainder being NK and T-cells (Geissmann et al., 2005; Liew et al., 2017). In sterile injury in the liver, recognition of endogenous glycolipid ligands on endothelial cells, Kupffer cells and other CD1d-expressing liver cells by iNKT cells result in the conversion of proinflammatory CCR2+ Ly6Chi monocytes into regulatory CX3CR1+ Ly6Clow monocytes, a process that is driven by iNKT-cell-derived IL-4. […] Although there were similar numbers of B-cells in the liver of untreated mice, they […] in interactions with Cxcr6+ cells to the same extent. […] See Lee, W. Y., et al. (2010). “An intravascular immune response to Borrelia burgdorferi involves Kupffer cells and iNKT cells” Nat. Immunol. 11, 295-302.

[5] = tested on: spontaneous PBC-like disease in NOD.c3c4 mice; assay: Treatment of spontaneous PBC-like disease in NOD.c3c4 mice; assay type: in vivo, mouse; details: FIG. 2
Excerpt: FIG. 2 illustrates the effect of treatment with αGalCer (KRN7000)/CD1d-coated NPs vs soluble KRN7000 or uncoated NPs on readouts of PBC in NOD.c3c4 mice. CBD, Common Bile Duct.

[6] = tested on: wild-type NOD.c3c4 mice; assay: Cytokine/cytokine receptor blockade of therapeutic activity in treated NOD.c3c4 mice; assay type: in vivo, mouse
[7] = tested on: liver iNKT cells; assay: RNA sequencing (RNAseq) of liver iNKT cells sorted from treated vs. untreated NOD.c3c4 mice; assay type: in vivo, mouse
Description: FIG. 5 illustrates normalized RNA expression counts (±SEM) for iNKT-relevant genes in the liver iNKT cells of NOD.c3c4 mice treated with αGalCer (KRN7000)/CD1d-NPs vs. control NOD.c3c4 mice.
To investigate this, RNA sequencing (RNAseq) studies of liver iNKT cells sorted from αGalCer/CD1d-NP-treated vs. untreated NOD.c3c4 mice was performed. […] When considering genes known to be expressed in various iNKT cell subsets (Gapin, L. (2016). “Development of invariant natural killer T cells” Curr. Opin. Immunol. 39, 68-74) including iNKT1 (Zbtb16 (PLZF)-low, Tbx21 (Tbet)+, Gata3−, Rorc (RORgt)−, Foxp3−, Maf−, Cd24−, Cd44+, Klrb1 (NK1.1)+, Ifbg+, IL2−, Il4+, Il17−, Il10−, Il21−, Il2rb (Cd122)+, Mirlet7 (LET-7)+, Znf683 (HOBIT)-high), iNKT2 (Zbtb16-high, Tbx21−, Gata3+, Rorc−, Maf−, Foxp3−, Cd24−, Cd44+, Klrb1−, Ifng−, Il2−, Il4+, Il17−, Il10−, Il21−, Il17rb+, Tnfsf11 (RANKL)+; and iNKT17 (Zbtb16-int, Tbx21−, Gata3−, Rorc+, Foxp3−, Maf-low, Cd24−, Cd44+, Klrb1-low/−, Il2−, il4−, Ifng−, Il17+, Il10−, Il21−, Tgfbr2+, Tnfsf11+), the liver iNKT cells of non-treated NOD.c3c4 mice appeared to be rather unique (Zbtb16+, Tbx21+, Gata3+, Rorc-low, Foxp3−, Maf-low, Cd24-low, Cd44+, Klrb1+, Il2−, Il4-low, Ifng+, Il17−, Il10−, Il21−, Il2rb+, Il17rb-low, Tgfbr2+, Mirlet7−, Znf683−, Tnfsf11−). Remarkably, the liver iNKT cells from treated animals were somewhat similar to the latter, except that they were Rorc−, Maf-high, Il10-high, Il21-high, Il2rb+, Il17rb− and Tgfbr2-low. […] The liver iNKT cells of treated mice were also different from αGalCer-induced NKT10 cells, based on available gene expression data (Il10+, Klrb1-low, Nfil3+ (E4BP4, which regulates IL-10 and IL-13 expression), Nrp1+, Itga4+, Itgae−, Ctla4+, Fr4+, Bcl6−, Il7r+, Slamf6-high, Icos+) (Sag et al., 2014). Unlike these iNKT10 cells, the liver iNKT cells from treated mice were Nfli3−, Nrp1-low, Fr4−, Bcl6-low and Il7r-low. […] These observations were substantiated by comparing the liver iNKT RNAseq data from αGalCer/CD1d-NP-treated and untreated mice to iNKT1, iNKT2, iNKT10 and iNKT17 RNAseq data from Engel et al. (Engel, I., et al. (2016). “Innate-like functions of natural killer T cell subsets result from highly divergent gene programs” Nat. Immunol. 17, 728-739.) (FIG. 6A to 6D)
To ascertain if some of the gene expression differences that were observed between the liver iNKT cells of αGalCer/CD1d-NP-treated and untreated mice were driven, at least in part, by their unique transcriptional factor expression profile, which transcription factors were associated with expression of differentially expressed genes was determined.
Consequently, these αGalCer/CD1d-NP-induced liver iNKT cells are called iNKTR1 cells.

[8] = tested on: iNKT cells; assay: Flow cytometry of iNKT cells (αGalCer/CD1d tetramer stained) from treated NOD.c3c4 mice; assay type: in vivo, mouse
Excerpt: FIG. 3 illustrates the effect of treatment with αGalCer (KRN7000)/CD1d-coated NPs vs uncoated NPs on the CD4/CD8 phenotype of liver (top) and splenic (bottom) iNKT cells (stained with αGalCer (KRN7000)/CD1d tetramers).
FIG. 4 illustrates the effect of treatment with αGalCer (KRN7000)/CD1d-coated NPs vs uncoated NPs on the levels of PD1, CD49d, CD69 and LAG3 in liver iNKT cells (stained with αGalCer (KRN7000)/CD1d tetramers).

[9] = RNAseq, negative in liver iNKT cells of untreated mice
[10] = RNAseq, treated mice, unlike iNKT10 cells
[11] = RNAseq, treated vs untreated mice
[12] = flow cytometry, vs liver iNKT cells of control (untreated or Cys-NP-treated) mice, FIG. 4
[13] = treated NOD.c3c4 mice, not shown

αGalCer/CD1d-NP: nanoparticles coupled to CD1d molecules whose binding groove is loaded with alpha-galactosylceramide (KRN7000)
transfer of disease protection by liver iNKT cells from treated mice [1]: could transfer disease protection
suppression of presentation of IGRP206-214 peptide to cognate TCR-transgenic CD8+ T-cells [2]: could suppress
conversion of transferred B-cells into IL-10/eGFP-expressing CD1d-high/CD5+ Breg cells [3]: Breg cell formation in treated, but not untreated animals; also recorded: can trigger the conversion
B-cell killing through iNKT-B-cell interactions ([4]; 4 days after the last dose): did not appear to result in B-cell killing
interaction of liver iNKT cells with B-cells ([4]; 4 days after the last dose, anti-CD19 labelled B-cells): seeking and engaging
number of liver iNKT cells ([4]; bi-weekly treatment, vs untreated mice): massive increase
motility of liver iNKT cells ([4]; imaged 4 days after the last dose): highly motile
motility of liver iNKT cells ([4]; imaged within 4 hours of a dose): stopped moving
effect on spontaneous PBC-like disease [5]: profound suppressive effect
effect of IL-21R blockade on therapeutic activity ([6]; mouse, in vivo): abrogated
inhibition of therapeutic activity by IFNγ blockade ([6]; wild-type NOD.c3c4 mice): not
inhibition of therapeutic activity by IL-4 blockade ([6]; wild-type NOD.c3c4 mice): to a lesser extent
inhibition of therapeutic activity by IL-10 blockade ([6]; wild-type NOD.c3c4 mice): partially inhibited
expression levels of compared genes in induced liver iNKT cells vs TR1 cells ([7]; 66 genes, normalized gene counts, FIG. 8): highly similar levels of expression
genes with >4-fold differences in expression compared with TR1 cells ([7]; FIG. 8, number of genes): 66
IL-10 (Il10) expression in liver iNKT cells ([7]; RNA, treated vs untreated mice): high upregulation; also recorded: Il10-high; also recorded: several hundred-fold higher levels
IL-21 (Il21) expression in liver iNKT cells ([7]; RNA, treated vs untreated mice): Il21-high; also recorded: high upregulation; also recorded: several hundred-fold higher levels
CTLA4 (Ctla4) expression in liver iNKT cells [7, 9]: high levels; also recorded: high upregulation
Itga4 (CD49d) expression in liver iNKT cells [7, 9]: high levels
Lag3 expression in liver iNKT cells [7, 9]: high levels; also recorded: high upregulation
Slamf6 expression in liver iNKT cells [7, 9]: high levels
Bcl6 expression in liver iNKT cells ([7]; RNAseq, treated mice): Bcl6-low; also recorded: low levels
Ccr6 expression in liver iNKT cells ([7]; RNAseq, treated mice): significantly downregulated
Il7r expression in liver iNKT cells ([7]; RNAseq, treated mice): significantly downregulated; also recorded: Il7r-low
Itgae (CD103) expression in liver iNKT cells ([7]; RNAseq, treated mice): significantly downregulated
Nrp1 expression in liver iNKT cells ([7]; RNAseq, treated mice): Nrp1-low
Tnfrsf14 (BTLA) expression in liver iNKT cells ([7]; RNAseq, treated mice): significantly downregulated
Fr4 expression in liver iNKT cells [7, 10]: Fr4−
Nfil3 expression in liver iNKT cells [7, 10]: Nfli3−
Cxcr5 expression in liver iNKT cells ([7]; RNAseq, treated mice, unlike iNKT-FH cells): lack expression
Gata3 expression in liver iNKT cells [7, 11]: significantly upregulated
PD1 expression in liver iNKT cells [7, 11]: high upregulation
TIGIT expression in liver iNKT cells [7, 11]: high upregulation
Vdr expression in liver iNKT cells [7, 11]: significantly upregulated
c-maf (Maf) expression in liver iNKT cells [7, 11]: high upregulation; also recorded: Maf-high; also recorded: significantly upregulated
Il2rb expression in liver iNKT cells ([7]; RNAseq, untreated: Il2rb+): Il2rb+
Il17rb expression in liver iNKT cells ([7]; RNAseq, untreated: Il17rb-low): Il17rb−
Rorc expression in liver iNKT cells ([7]; RNAseq, untreated: Rorc-low): Rorc−
Tgfbr2 expression in liver iNKT cells ([7]; RNAseq, untreated: Tgfbr2+): Tgfbr2-low
differentially expressed genes shared by the TR1 cells ([7]; of 238, comparison of RNA-seq profiles): 91
differentially expressed genes also upregulated in cognate TR1-like CD4+ T-cells of pMHCII-NP-treated mice ([7]; of 238, number of genes): 138
downregulated genes co-regulated by Maf, Gata3 and Vdr ([7]; of the 71 downregulated, FIG. 7): none
upregulated protein-coding genes co-regulated by Maf, Gata3 and Vdr ([7]; of the 135 upregulated, FIG. 7): 66
differentially expressed genes also upregulated in cognate TR1-like CD4+ T-cells of pMHCII-NP-treated mice ([7]; share of 238 genes): 58%
number of differentially expressed genes in liver iNKT cells ([7]; treated vs untreated mice): 238
number of downregulated protein-coding genes in liver iNKT cells ([7]; treated vs untreated mice): 71
number of upregulated protein-coding genes in liver iNKT cells ([7]; treated vs untreated mice): 135
CD4/CD8 phenotype of splenic and liver-associated iNKT cells ([8]; at the expense of CD4−CD8− iNKT cells, FIG. 3): enriched for CD4+CD8− iNKTs
CD69 level on iNKT cells [8, 12]: significantly higher levels
CD49d level on iNKT cells [8, 12]: significantly higher levels
Lag-3 level on iNKT cells [8, 12]: significantly higher levels
PD1 level on iNKT cells [8, 12]: significantly higher levels
circulating frequency of iNKT cells [8, 13]: slight increase
iNKT content in spleen and lymph nodes (liver-draining and not) [8, 13]: slight decrease
